Reference: patent US20020164721A1, “Design of a polyepitopic construct for the induction of HLA-A2.1 restricted HIV 1 specific CTL responses using HHD mice” (priority 1999, published 2002)
“And” between values parts separate entries of the source, which are not always exact repeats. Equal entries are not always repeated. “Also recorded” adds a separate entry of the source. Where two headings read alike, the source gives them in different places.

Columns and labels:
[1] = tested on: peptide-pulsed HHD-transfected RMAS cells; assay type: in vivo, HHD mice; settings: for Maximum specific lysis (%): each responder mouse
[2] = tested on: peptide-pulsed HHD-transfected RMAS cells; assay type: in vivo, HHD mice
[3] = tested on: HHD-transfected RMA-S cells loaded with relevant peptide; experiment: CTL response of HHD mice injected s.c. with tumor epitopic peptide in IFA (51Cr-release assay); assay type: in vivo; settings: for hierarchy of CTL inducers: peptide alone in IFA, by number of responding mice and level of specific lysis; for R/T (responder versus tested mice) / lysis in % (maximal lysis for each responder mouse): peptide s.c. in IFA; for R/T (responder versus tested mice): no helper, responder = at least 10% specific lysis; for lysis in % (maximal lysis for each responder mouse): usually 60:1 E/T ratio
[4] = tested on: HHD-transfected RMA-S target cells loaded with relevant peptide; experiment: CTL response of HHD mice co-immunized in IFA with tumor peptide and HBVc.128 helper peptide; assay type: in vivo; settings: for R/T (responder versus tested mice): 50 μg CD8 peptide + 140 μg HBVc.128 helper in IFA; for CTL response with helper peptide (in words): co-injected with HBVc.128 helper, compared with peptide alone
[5] = tested on: HHD-transfected RMA-S cells loaded with relevant peptide; experiment: CTL response of A2A2Kb mice injected s.c. with tumor epitopic peptide in IFA (51Cr-release assay); assay type: in vivo; settings: for R/T (responder versus tested mice): responder = at least 10% specific lysis
[6] = tested on: peptide-loaded HHD-transfected RMA-S cells and HHD-transfected HeLa cells expressing the polyepitope; experiment: Melanoma polyepitopic pCMV-B10 DNA immunization of HHD mice, CTL assay; assay type: in vivo; settings: pCMV-B10 DNA with 10 melanoma epitopes, FIG. 1C and D
HLA-A2.1 molecules = target: T1, HLA-A2.1 molecules (Homo sapiens, UniProt P04439, D140Y/D185E/D98H/E176V/E277Q/G131W/G231S/I119V/I121R/I166T/I218V/L300P/L318F/N151K/N90K/P208A/P217A/Q86G/Q94H/R138H/R169H/T345S); assay type: binding
T1 construct: Using TAP-deficient, HLA-A2.1^+ T2 cells, we evaluated these parameters in an immunofluorescence assay; endogenous in cells; host or cells: T2 cells (TAP-deficient, HLA-A2.1+)

[7] = tested on: HHD-transfected RMAS cells loaded with relevant peptide; experiment: CTL response of HHD mice immunized with monoepitopic pCMV-B10 DNA; assay type: in vivo; settings: for lysis in % (highest specific lysis): pCMV-B10 DNA encoding the epitope, individual mice 1-6
[8] = tested on: HHD-transfected RMAS cells loaded with relevant peptide; experiment: CTL response of HHD mice immunized with recombinant Ty-VLP; assay type: in vivo; settings: for lysis in % (highest specific lysis): recombinant Ty-VLP carrying the epitope, individual mice 1-6
[9] = tested on: HHD-transfected RMAS cells loaded with relevant peptide; experiment: CTL response of HHD mice immunized with peptide-loaded dendritic cells; assay type: in vivo; settings: for lysis in % (highest specific lysis): individual mice 1-6, usually 60/1 E/T; for lysis in % after a second in vitro restimulation: second restimulation with 10% TCGF, individual mice 1-6
[10] = tested on: HHD-transfected RMAS cells loaded with relevant peptide; experiment: CTL response of HHD mice immunized with lipopeptides; assay type: in vivo; settings: lipopeptide of the epitope; individual mice 1-6
[11] = by number of responder mice and strength of responses, peptide in IFA
[12] = without helper peptide, 100 μg peptide s.c. in IFA
[13] = with helper peptide, 50 μg CD8 + 140 μg HBV core T13L in IFA
[14] = wild-type HIV 1 peptides, reference I9V, T2 cells

Sequence | classification as immunogen [1, 11] | Responder/tested mice [1, 12] | hierarchy of CTL inducers [3] | R/T (responder versus tested mice) [3] | R/T (responder versus tested mice) [4] | R/T (responder versus tested mice) [5] | CTL response against the epitope after melanoma polyepitope DNA immunization (in words) [6] | RA (relative affinity) (HLA-A2.1 molecules) | also measured
AFHHVAREL [A9L, HIV 1 NEF (188-196) CD8 epitopic peptide] | inefficient | 0/6 |  |  |  |  |  |  | Responder/tested mice [2, 13]: 0/6
ESELVNQIIEQ [E11Q] |  |  |  |  |  |  |  |  | classification as immunogen ([1]; mouse, in vivo): inefficient; Responder/tested mice ([1]; mouse, in vivo, sc): 0/6; Responder/tested mice ([2]; mouse, in vivo): 0/6
FLWGPRALV [MAGE-3.271] |  |  | weak | 1/6 | 6/6 | 0/6 | No specific lysis |  | lysis in % (maximal lysis for each responder mouse) [3]: (33) %; CTL response with helper peptide (in words) [4]: good CTL responses in a large proportion of mice
IISAVVGIL [Her2/neu.654, Her2/neu 654-662 epitopic peptide] |  |  | weak | 1/6 | 0/6 | 0/6 |  |  | lysis in % (maximal lysis for each responder mouse) [3]: (42) %
ILKEPVHGV [I9V] | strong | 4/6 |  |  |  |  |  |  | Responder/tested mice [2, 13]: 5/6
ILTVILGVL [Melan-A/MART-1.32, Melan-A/MART-1 32-40 epitopic peptide] |  |  | inefficient | 0/6 | 1/6 | 0/6 | did not elicit CTL responses; also recorded: No specific lysis | 21.1 | lysis in % ([4]; co-injected with HBVc.128 helper peptide in IFA, each responder mouse): (10) %
ITDQVPFSV [gp100.209] |  |  | weak | 1/6 | 3/6 | 0/6 | elicited CTL responses depending on mice; also recorded: No specific lysis |  | lysis in % (maximal lysis for each responder mouse) [3]: (23) %
KTWGQYWQV [gp100.154] |  |  | strong | 4/6 | 9/11 | 5/6 | Strong responses |  | CTL response with helper peptide (in words) [4]: stronger responses in a larger proportion of mice
LLDGTATLRL [gp100.457] |  |  | inefficient | 0/6 | 5/6 | 0/6 | Significant responses | 1.65 | CTL response with helper peptide (in words) [4]: good CTL responses in a large proportion of mice
LLGRNSFEV [p53.264] |  |  | inefficient | 0/7 | 2/3 | 0/6 |  |  | 
LLWKGEGAV [L9V, HIV 1 POL (956-964) CD8 epitopic peptide] | intermediate | 3/6 |  |  |  |  |  |  | 
MLLAVLYCL [Tyrosinase.1, Tyrosinase 1-9 epitopic peptide] |  |  | inefficient | 0/10 | 5/6 | 0/6 | did not elicit CTL responses; also recorded: No specific lysis | >60 | CTL response with helper peptide (in words) [4]: good CTL responses in a large proportion of mice
PLTFGWCFKL [P10L, HIV 1 NEF (134-143) CD8 epitopic peptide] | inefficient | 0/6 |  |  |  |  |  |  | RA (relative affinity) (HLA-A2.1 molecules; [14]): >100/ND; Responder/tested mice [2, 13]: 0/6
PLVKLWYQL [P9L, HIV 1 POL (576-584) CD8 epitopic peptide] | inefficient | 0/6 |  |  |  |  |  |  | RA (relative affinity) (HLA-A2.1 molecules; [14]): >100/ND; Responder/tested mice [2, 13]: 0/6
RLRDLLLIV [R9V, HIV 1 ENV gp41 (260-268) CD8 epitopic peptide] | intermediate | 1/6 |  |  |  |  |  | >100/ND | Maximum specific lysis (%) ([1]; without helper peptide): 14%; Responder/tested mice [2, 13]: 0/6
RMPEAAPPV [p53.65, p53 65-73 epitopic peptide] |  |  | intermediate | 4/6 | 5/6 | 0/6 |  | 0.91 | CTL response with helper peptide (in words) [4]: stronger responses in a larger proportion of mice
STPPPGTRV [p53.149, p53 149-157 epitopic peptide] |  |  | inefficient | 0/6 | 3/6 | 0/6 |  |  | 
TLGIVCPI [HPV E7.86, HPV16 E7 86-93 epitopic peptide] |  |  | inefficient | 0/6 | 2/6 | 2/6 |  |  | 
TLNAWVKVV [T9V] | intermediate | 2/6 |  |  |  |  |  |  | Responder/tested mice [2, 13]: 3/5
VIYQYMDDL [V9L, HIV 1 POL (334-342) CD8 epitopic peptide] | intermediate | 1/6 |  |  |  |  |  |  | Maximum specific lysis (%) ([1]; without helper peptide): 34%; Responder/tested mice [2, 13]: 1/6; Maximal specific lysis (%) ([2]; with helper peptide, each responder mouse): 57%
VLYRYGSFSV [gp100.476, gp100 476-485 human melanoma epitopic peptide] |  |  | weak | 2/6 | 6/7 | 1/6 | did not elicit CTL responses | 10 | lysis in % (maximal lysis for each responder mouse) ([5]; usually 60:1 E/T ratio): (29) %
YLSGANLNL [CEA.571, CEA 571-579 epitopic peptide] |  |  | strong | 6/6 | 3/6 | 0/6 |  |  | lysis in % (highest specific lysis) [7]: 19% and 66% and 40% and 65% and 62% and 55%; CTL responses (in words) ([7]; recombinant pCMV-B10-DNA, all animals tested): strong CTL responses; lysis in % (highest specific lysis) [8]: 56% and 59% and 51% and 58% and 46% and 62%; CTL responses (in words) ([8]; recombinant Ty-VLP, all animals tested): strong CTL responses; CTL response with helper peptide (in words) [4]: less immunogenic; lysis in % (highest specific lysis) [9]: 4% (2×) and 1% (2×) and 0% and 2%; lysis in % after a second in vitro restimulation [9]: (1) %; also recorded: (5) %; also recorded: (2) %; also recorded: (0) %; also recorded: (22) %; lysis in % (highest specific lysis) [10]: 0% (2×) and 8% (2×) and 34% and 3%
YMDGTMSQV [Tyrosinase.368-D] |  |  | weak | 1/6 | 2/6 | 0/6 | elicited CTL responses depending on mice | 2.27 | lysis in % (highest specific lysis) [7]: 57% and 55% and 28% (2×) and 58% and 56%; lysis in % (maximal lysis for each responder mouse) [3]: (10) %; lysis in % (highest specific lysis) [9]: 12% and 20% and 8% and 3% and 7% and 23%; lysis in % after a second in vitro restimulation [9]: (64) %; also recorded: (92) %; also recorded: (71) %; also recorded: (68) %; also recorded: (56) %; lysis in % (highest specific lysis) [10]: 0% (3×) and 10% and 1% and 4%
YMNGTMSOV [Tyrosinase.368-N] |  |  | intermediate | 4/15 | 5/12 | 0/6 |  | 2.2 | lysis in % (highest specific lysis) [7]: 6% and 12% and 16% and 13% and 11% and 38%; lysis in % (highest specific lysis) [8]: 0% and 61% and 58% and 39% and 29% and 17%; lysis in % (highest specific lysis) [9]: 0% (4×) and 8% and 15%; lysis in % after a second in vitro restimulation [9]: (3) %; also recorded: (17) %; also recorded: (30) %; also recorded: (80) %; also recorded: (61) %; also recorded: (1) %; lysis in % (highest specific lysis) [10]: 51% and 20% and 0% and 5% and 11% and 12%
